From US8530433B2, “Use of icariside II in manufacture of products for preventing or treating male or female sexual dysfunction” (Bjo-Biomed Ltd, priority 2008, dated 2013) come the findings set out here.

Test [1] concerns Porcine vascular endothelial cells (PAE). Kind of test: NOS enzyme activity in vascular endothelial cells (PAE), NOS kit. It counts as cell-based. The following applies: for NOS enzyme activity: PAE cells. The protocol: Porcine vascular endothelial cells (PAE) were provided by the Institute of Urology, Peking University. The determination of the effect of icariside II on NOS activity in the endothelial cell is conducted using NOS kit (Cayman Chemical company, Ann Arbor, Mich., USA). Vascular endothelial cells (PAE) were treated with different concentrations of icariside II (0, 10^−9, 10^−8, 10^−7, 10^−6, 10^−5 and 10^−4 M) (sildenafil as the control group). 180 μl lysate was added into each culture well. 20 μl supernatant was used for protein concentration assay with BCA protein kit. And, 100 μl supernatant was analyzed for NOS activity with NOS kit (Cayman Chemical company, Ann Arbor, Mich., USA). NOS activity (units/mg)=[(valueNos-measure−valueNOS-blank)÷(38.3×10^6)]×[(2.15+supernatant volume)÷(15×supernatant volume)]÷[protein concentration of each Petri dish].

For another test, the system named is PAE cells. Kind of test: eNOS protein expression by Western blot in PAE cells. It counts as cell-based, porcine. The following applies: 12.5 μM, 24 hr; for eNOS protein expression (normalized to β-actin): PAE cells; for eNOS expression levels: unstable strains. The protocol:
2) 5×10^5 of the PAE cells and PAE-EGFR cells were seeded into 35 mm Petri dishes plate in quadruplicate. After 12 hours, PAE and PAE-EGFR cells was treated with 12.5 μM icariside II and sildenafil for 24 hr, respectively. Then the treated PAE and PAE-EGFR cells were lysed with RIPA buffer and subjected to 8% SDS-PAGE electrophoresis. eNOS protein expression was detect by Western blot. After development with super ECL luminescence substrate, the band was analyzed with a Optical density scanner. The results were analyzed by normalizing to β-actin. 3) 5×10^5 of the PAE cells and PAE-EGFR cells were seeded into 35 mm Petri dishes plate in quadruplicate. After 12 hours, PAE and PAE-EGFR cells was treated with 12.5 μM icariside II and sildenafil for 24 hr, respectively, in the presence or absence with 100 μg/ml of EGF. Then the treated PAE and PAE-EGFR cells were lysed with RIPA buffer and subjected to 8% SDS-PAGE electrophoresis. eNOS protein expression was detect by Western blot. After development with super ECL substrate, the band was analyzed with an Optical density scanner. The resulted results were analyzed by normalizing to β-actin.
(In general: A western blot detects proteins with antibodies after separation by electrophoresis.)

Test [2] relates to Primary human corpus cavernosum smooth muscle cells (CCSMCs). Kind of test: NOS activity in corpus cavernosum smooth muscle cells. It counts as cell-based. The protocol: Primary human corpus cavernosum smooth muscle cells ([…]) were provided by the Andrology Center of Peking University. The […] of the third passage were cultured in six well plates for two days. Then the cells were treated with icariside II or the sildenafil at a concentration of 0, 10^-9, 10^-8, 10^-7, 10^-6, 10^-5 M; or treated with icariside II (0, 10^-9, 10^-8, 10^-7, 10^-6, 10^-5 M) in the presence or absence of LNNA (4×10^-4 M). The control group was cultured with DMEM only. After 24 hours, the cells were washed three times and 180 μl lysis buffer was added into each well; 60 μl cell suspension was taken for protein concentration assay with BCA protein kit; 100 μl cell suspension was taken for NOS activity test. NOS activity (units/mg protein)=[(valueNOS-measure-valueNOS-blank)÷(38.3×10^6)]×[(2.15+supernatant volume)÷(15×S supernatant volume)]÷[protein concentration in each well].

Test [3] has the same test system. Kind of test: cGMP/cAMP biosynthesis in corpus cavernosum smooth muscle cells. The test is classed as cell-based. The following applies: 4 hours; for effect on the cAMP concentration: P>0.05. The protocol: Primary human corpus cavernosum smooth muscle cells ([…]) were provided by the Andrology Center of Peking University. The […] of the third passage were cultured in six plates for two days. Then the cells were treated with icariside II or the sildenafil at the concentration of 0, 10^-9, 10^-8, 10^-7, 10^-6, 10^-5, M for 4 hours; or treated with icariside II or the sildenafil at the concentration of 0, 10^-9, 10^-8, 10^-7, 10^-6, 10^-5, 10^-4 M for 4 hours followed by a treatment with 10^-5 M of SNP for 30 min. The control group was cultured with DMEM only. Then to each well was added 0.4 mL 0.1 M HCl and incubated at room temperature for 20 minutes. Then the lysed cells are harvested. The cell suspension was collected in centrifuge tubes and centrifuged at 1000 g for 10 minutes; 60 μl cell suspension was taken for protein concentration assay with the BCA protein kit, and 100 μl cell suspension was taken for cGMP or cAMP concentration test. The concentration of cGMP [pmol/(mg prot·min)]=[cGMP or cAMP concentration×supernatant volume]÷reaction time×protein concentration in each well×supernatant volume].

Test [4] has as its system Human corpus cavernosum smooth muscle cells. Kind of test: RT-PCR mRNA expression of NOS isoforms and PDE5a in corpus cavernosum smooth muscle cells. The test is classed as cell-based. The following applies: 12.5 μM; 1 day and 2 days treatment. The protocol:
Human corpus cavernosum smooth muscle cells were grown in 60 mm Petri dishes. […] Then the treated CCSMCs were lysed with Trizol and total RNA was extracted and reverse transcribed into cDNA. PCR amplification was carried out using eNOS, iNOS, nNOS and PDE5a specific primers and the specific PCR products represent the mRNA levels.

Test [5] relates to Corpus cavernosum smooth muscle cells. The experiment in a line: Western blot protein expression of NOS isoforms, PDE5, PKG and sGC in corpus cavernosum smooth muscle cells. It counts as cell-based, human. The following applies: 12.5 μM; 1 and 2 days. The protocol: Corpus cavernosum smooth muscle cells were grown in 60 mm Petri dishes. […] Then the treated CCSMCs were lysed with RIPA buffer and subjected to 8% SDS-PAGE electrophosis. Expression of eNOS and other proteins were detected by Western blot. After exposing with super ECL luminescence substrate, the band was analyzed with a Optical density scanner. The resulted results were analyzed by normalizing to β-actin.

Turning to `CCCc1nn(C)c2c(=O)[nH]c(-c3cc(S(=O)(=O)N4CCN(C)CC4)ccc3OCC)nc12` [Sildenafil, sildenafil, reference compound], the NOS enzyme activity in test [1] (10^−5 M) amounted to 6.66 ± 0.65 u/mg. In test [1] (10^−6 M), the NOS enzyme activity was determined as 5.99 ± 0.58 u/mg. Further, in test [1] (10^−7 M), the NOS enzyme activity was 6.32 ± 0.63 u/mg. The molecule also had an NOS enzyme activity in test [1] (10^−8 M) of 5.85 ± 0.579 u/mg. The NOS enzyme activity in test [1] (10^−9 M) is 5.76 ± 0.56 u/mg. The “effect on NOS activity in endothelial cells” value in test [1] (endothelial cells (PAE, PAE-EGFR), p>0.05) was “no significant effect”. In the test with PAE cells, the “eNOS protein expression (normalized to β-actin)” value amounted to 1.12 ± 0.09 and the eNOS expression levels worked out at 1.38. Besides, the “effect on NOS activity in CCSMCs” value in test [2] (10^−9 to 10^−5 M, 24 hours) is reported as “no significant difference”. Also, the “effect on the cAMP concentration” value in test [3] is reported as “no significant effect”. In test [4], the “PDE5a mRNA level” value is “significantly reduced”, the “eNOS mRNA level” value is on record as “not significantly changed”, the “iNOS mRNA level” value is “slightly increased after 2 days treatment” and the “nNOS mRNA level” value was “not significantly changed”. In addition, in test [5], the PDE5a protein expression result is reported as “decrease”, the PKG protein expression entry was “increase”, the eNOS protein expression result is recorded as “no effect” and the iNOS protein expression result is listed as “no effect”. Also, in test [5], the nNOS protein expression entry is listed as “no effect” and the sGC protein expression result was “no effect”.

With icariside II, in test [1] (10^−5 M), the NOS enzyme activity is on record as 18.66 ± 1.79 u/mg. This molecule also displayed an NOS enzyme activity in test [1] (10^−6 M) of 19.1 ± 1.9 u/mg. In test [1] (10^−6 M, listed as icariside II), this molecule showed an NOS enzyme activity of 19.1±1.891 u/mg. In test [1] (10^−7 M), this molecule displayed an NOS enzyme activity of 16.46 ± 1.63 u/mg. The molecule further yielded an NOS enzyme activity in test [1] (10^−8 M) of 10.71 ± 0.98 u/mg. Also, the NOS enzyme activity in test [1] (10^−8 M, listed as icariside II) was determined as 10.71±1.09 u/mg. The same molecule gave an NOS enzyme activity in test [1] (10^−9 M) of 8.65 ± 0.87 u/mg. For the same molecule, in the test with PAE cells, the “eNOS protein expression (normalized to β-actin)” value came out at 1.08 ± 0.09 and the eNOS expression levels is listed as 2.08. Also, the “NOS activity (peak)” value in test [2] (10^−6 M, 24 hours, untreated 0.46 units/mg) turned out to be 4.19 units/mg. Besides, the NOS activity in test [2] (10^−8 M, 24 hours, untreated 0.46 units/mg) amounted to 1.59 units/mg. The “peak value of NOS activity in presence of LNNA” value in test [2] (with LNNA 4×10^−4 M) came out at 2.67 unit/mg. In addition, in test [3], the “effect on the cAMP concentration” value is listed as “no significant effect”. Besides, the EC50 in test [3] (in presence of 10^−5 M SNP, read-out: EC50 of cGMP concentration increase) worked out at 1020 nM. In addition, in test [4], the “PDE5a mRNA level” value is reported as “significantly decreased”, the “eNOS mRNA level” value is given as “not changed”, the “iNOS mRNA level” value is “slightly increased” and the “nNOS mRNA level” value is on record as “significantly increased”. Further, in test [5], the PDE5a protein expression result is on record as “significantly decreased”, the PKG protein expression entry is reported as “significantly increased”, the eNOS protein expression result was “increased at 2 days” and the iNOS protein expression result is given as “slightly increased”. For the same molecule, in test [5], the nNOS protein expression result is listed as “significantly increased” and the sGC protein expression entry is on record as “significantly increased”.
